{"source": "patent US20240208954A1", "about": "“OXADIAZOLE COMPOUND, PREPARATION METHOD THEREFOR, PHARMACEUTICAL COMPOSITION AND USE THEREOF” (SHANGHAI INSTITUTE OF MATERIA MEDICA, CHINESE ACADEMY OF …, priority 2020, published 2024)", "experiment": "Preliminary assessment of pharmacokinetics in mice", "type": "in vivo, CD-1 mice", "experimental": "Dosing Regimen 9 CD-1 mice, male, weighing 20-26 g, were randomly divided into 3 groups with 3 mice in each group. The test compounds were administered intragastric, intravenously or intraperitoneally according to the following protocol. The mice were fasted for 12 h before the test and drank water freely. Food was consumed uniformly 2 h after administration. [table] The intragastric administration solution was prepared with DMSO/0.5% HPMC(5/95, v/v) to the final concentration. Intravenous and intraperitoneal administration solution was formulated with DMSO/PEG300/EtOH/NaCl(5/40/5/50, v/v/v). The sample of the administration solution was left (50 μL of the solution was mixed with 50 μL of DMSO before and after the administration, respectively) for test. The drug was given according to the above dose, the time of administration was recorded, and 20 μL of blood was taken from the femoral plexus of mice at the above set time points and placed in heparinized tubes. The blood was immediately centrifuged at 11000 rpm for 5 min. 10 μL of plasma was immediately and accurately sucked into a centrifuge tube prefilled with 100 μL of PK-IS solution (prepared with methanol: acetonitrile (1:1,v/v)), well mixed, and freezed at −20° C. for test.", "note": "“And” between values parts separate entries of the source, which are not always exact repeats. Identical values can stand only once. Like-named read-outs stand apart in the source and are kept apart here.", "data": [{"molecule": "CC(C)Oc1ccc(-c2nc(-c3ccc(CN4CC(C(=O)O)C4)c4ccccc34)no2)cc1C#N.Cl", "note": "[Compound A1, 1-((4-(5-(3-cyano-4-isopropoxyphenyl)-1,2,4-oxadiazol-3-yl)naphthalen-1-yl)methyl) azetidine-3-carboxylic acid hydrochloric acid]", "values": [{"measurement": "Concentration of A1 Drug in Plasma of Mice", "setting": "intraperitoneal injection 20 mg/kg, 0.05 h, individual animals 4-6, 20 mg/kg", "result": "1105 ng/mL and 473 ng/mL and 715 ng/mL"}, {"measurement": "Concentration of A1 Drug in Plasma of Mice", "setting": "intraperitoneal injection 20 mg/kg, 0.25 h, individual animals 4-6, 20 mg/kg", "result": "827 ng/mL and 1507 ng/mL"}, {"measurement": "Concentration of A1 Drug in Plasma of Mice", "setting": "intraperitoneal injection 20 mg/kg, 0.75 h, individual animals 4-6, 20 mg/kg", "result": "1206 ng/mL and 1534 ng/mL and 3318 ng/mL"}, {"measurement": "Concentration of A1 Drug in Plasma of Mice", "setting": "intraperitoneal injection 20 mg/kg, 2.00 h, individual animals 4-6, 20 mg/kg", "result": "516 ng/mL and 1443 ng/mL and 4405 ng/mL"}, {"measurement": "Concentration of A1 Drug in Plasma of Mice", "setting": "intraperitoneal injection 20 mg/kg, 4.00 h, individual animals 4-6, 20 mg/kg", "result": "376 ng/mL and 201 ng/mL and 535 ng/mL"}, {"measurement": "Concentration of A1 Drug in Plasma of Mice", "setting": "intraperitoneal injection 20 mg/kg, 8.00 h, individual animals 4-6, 20 mg/kg", "result": "273 ng/mL and 78.2 ng/mL and 119 ng/mL"}, {"measurement": "Concentration of A1 Drug in Plasma of Mice", "setting": "intraperitoneal injection 20 mg/kg, 24.0 h, individual animals 4-6, 20 mg/kg", "result": "86.9 ng/mL and 26.5 ng/mL and 35.0 ng/mL"}, {"measurement": "concentration at 0.25 h", "setting": "male, CD-1, mouse, plasma, intraperitoneal, 20 mg/kg, title: intraperitoneal 20 mg/kg, 0.25 h, mean, read-out: Concentration of A1 Drug in Plasma of Mice", "result": 1740, "unit": "ng/mL"}, {"measurement": "concentration at 0.5 h", "setting": "male, CD-1, mouse, plasma, intraperitoneal, 20 mg/kg, title: intraperitoneal 20 mg/kg, 0.50 h, mean, read-out: Concentration of A1 Drug in Plasma of Mice", "result": 2160, "unit": "ng/mL"}, {"measurement": "concentration at 1 h", "setting": "male, CD-1, mouse, plasma, intraperitoneal, 20 mg/kg, title: intraperitoneal 20 mg/kg, 1.00 h, mean, read-out: Concentration of A1 Drug in Plasma of Mice", "result": 2600, "unit": "ng/mL"}, {"measurement": "concentration at 2 h", "setting": "male, CD-1, mouse, plasma, intraperitoneal, 20 mg/kg, title: intraperitoneal 20 mg/kg, 2.00 h, mean, read-out: Concentration of A1 Drug in Plasma of Mice", "result": 1180, "unit": "ng/mL"}, {"measurement": "concentration at 4 h", "setting": "male, CD-1, mouse, plasma, intraperitoneal, 20 mg/kg, title: intraperitoneal 20 mg/kg, 4.00 h, mean, read-out: Concentration of A1 Drug in Plasma of Mice", "result": 142, "unit": "ng/mL"}, {"measurement": "concentration at 8 h", "setting": "male, CD-1, mouse, plasma, intraperitoneal, 20 mg/kg, title: intraperitoneal 20 mg/kg, 8.00 h, mean, read-out: Concentration of A1 Drug in Plasma of Mice", "result": 24.6, "unit": "ng/mL"}, {"measurement": "concentration at 24 h", "setting": "male, CD-1, mouse, plasma, intraperitoneal, 20 mg/kg, title: intraperitoneal 20 mg/kg, 24.0 h, individual animals 1-3, read-out: Concentration of A1 Drug in Plasma of Mice", "result": 4.8, "unit": "ng/mL"}, {"measurement": "concentration at 24 h", "setting": "male, CD-1, mouse, plasma, intraperitoneal, 20 mg/kg, title: intraperitoneal 20 mg/kg, 24.0 h, mean, read-out: Concentration of A1 Drug in Plasma of Mice", "result": 4.13, "unit": "ng/mL"}, {"measurement": "concentration at 0.05 h", "setting": "male, CD-1, mouse, plasma, ip, 20 mg/kg, intraperitoneal injection 20 mg/kg, 0.05 h, mean, read-out: Concentration of A1 Drug in Plasma of Mice", "result": 764, "unit": "ng/mL"}, {"measurement": "concentration at 0.25 h", "setting": "male, CD-1, mouse, plasma, ip, 20 mg/kg, intraperitoneal injection 20 mg/kg, 0.25 h, individual animals 4-6, read-out: Concentration of A1 Drug in Plasma of Mice", "result": 1170, "unit": "ng/mL"}, {"measurement": "concentration at 0.25 h", "setting": "male, CD-1, mouse, plasma, ip, 20 mg/kg, intraperitoneal injection 20 mg/kg, 0.25 h, mean, read-out: Concentration of A1 Drug in Plasma of Mice", "result": 1170, "unit": "ng/mL"}, {"measurement": "concentration at 0.75 h", "setting": "male, CD-1, mouse, plasma, ip, 20 mg/kg, intraperitoneal injection 20 mg/kg, 0.75 h, mean, read-out: Concentration of A1 Drug in Plasma of Mice", "result": 2020, "unit": "ng/mL"}, {"measurement": "concentration at 2 h", "setting": "male, CD-1, mouse, plasma, ip, 20 mg/kg, intraperitoneal injection 20 mg/kg, 2.00 h, mean, read-out: Concentration of A1 Drug in Plasma of Mice", "result": 2120, "unit": "ng/mL"}, {"measurement": "concentration at 4 h", "setting": "male, CD-1, mouse, plasma, ip, 20 mg/kg, intraperitoneal injection 20 mg/kg, 4.00 h, mean, read-out: Concentration of A1 Drug in Plasma of Mice", "result": 370, "unit": "ng/mL"}, {"measurement": "concentration at 8 h", "setting": "male, CD-1, mouse, plasma, ip, 20 mg/kg, intraperitoneal injection 20 mg/kg, 8.00 h, mean, read-out: Concentration of A1 Drug in Plasma of Mice", "result": 157, "unit": "ng/mL"}, {"measurement": "concentration at 24 h", "setting": "male, CD-1, mouse, plasma, ip, 20 mg/kg, intraperitoneal injection 20 mg/kg, 24.0 h, mean, read-out: Concentration of A1 Drug in Plasma of Mice", "result": 49.5, "unit": "ng/mL"}, {"measurement": "concentration at 0.05 h", "setting": "male, CD-1, mouse, plasma, po, 2 mg/kg, title: oral 2 mg/kg, 0.05 h, individual animals 4-6, read-out: Concentration of A1 Drug in Plasma of Mice", "result": 1790, "unit": "ng/mL"}, {"measurement": "concentration at 0.05 h", "setting": "male, CD-1, mouse, plasma, po, 2 mg/kg, title: oral 2 mg/kg, 0.05 h, mean, read-out: Concentration of A1 Drug in Plasma of Mice", "result": 1940, "unit": "ng/mL"}, {"measurement": "concentration at 0.25 h", "setting": "male, CD-1, mouse, plasma, po, 2 mg/kg, title: oral 2 mg/kg, 0.25 h, individual animals 4-6, read-out: Concentration of A1 Drug in Plasma of Mice", "result": 1040, "unit": "ng/mL"}]}]}
